From US9005981B2, “Assays utilizing nicotinic acetylcholine receptor subunits” (priority 2008, dated 2015)
Like-named read-outs stand apart in the source and are kept apart here.

Assays:
[1] = test system: Drosophila melanogaster flies of the Oregon wild-type strain; assay: Fly mortality screen, wild-type flies; format: in vivo; conditions: 100 ppm in 10% sucrose via cotton wicks, 72 hours post-treatment
Method: (§1) Ten adult Drosophila melanogaster flies (5 males and 5 females) of the Oregon wild-type strain and ten adult flies of a spinosyn-resistant strain were used per treatment. Two sets (of 10 flies) were set-up per treatment. Stocks of spinosyn A and a 21-butenyl-spinosyn analog were formulated at 1000 ppm in 2:1 acetone:water and then diluted to the required concentration in 10% sucrose. Vials received 500 ul of treatment (or solvent for controls) via cotton wicks (approximately ¼ inch) and flies were added to each vial and capped with a cotton plug. Flies were monitored over 72 hours post-treatment while being maintained at room-temperature with a 12:12 light:dark cycle.
(§2) In addition, the spinosyn A resistant flies were >100-fold resistant (based on LD50) to the new class of spinosyns, represented by the 21-butenyl spinosyns.

[2] = test system: Drosophila melanogaster flies of a spinosyn-resistant strain; assay: Fly mortality screen, spinosyn-resistant flies; format: in vivo; conditions: for mortality: 100 ppm in 10% sucrose via cotton wicks, 72 hours post-treatment, spinosyn-resistant flies; for resistance of spinosyn A resistant flies compared to wild-type flies (based on LD50): dose-response data, LD50 resistant vs wild-type
Method: as §1, §2

[3] = test system: D α6 and C. elegans ric3 expressed in D.Mel-2 cells; format: binding, Drosophila melanogaster
Method: D.Mel-2 cells were seeded into 75 cm^2 flasks at 1.9×10^7 cells/flask in Drosophila SFM containing antibiotic/antimicotic and incubated overnight at 27° C. The transfection mix was prepared in 12×75 mm polystyrene tubes by mixing 1630 μl sterile water, 40 μg pIB/V5-HisA/ric3, 40 μg pIB/V5-HisA/30D and 250 μl CellFectin. The reagents were mixed gently and incubated at room temp for 15 minutes. While the transfection mix was incubating, the cells were washed with 10 ml fresh Drosophila SFM without antibiotics; this media was then removed from the cells and replaced with 6 ml fresh Drosophila SFM without antibiotics. To the transfection mix was added 4 ml Drosophila SFM without antibiotics and this was then transferred to the flask. The reagents were gently mixed by pipetting up and down and then incubated overnight at 27° C.
D.Mel-2 cells were purchased from Invitrogen (Carlsbad, Calif.) and grown in disposable 125 ml shake flasks using 50 ml volume. Cells were subcultured to 3×10^5 cells/ml twice per week in Drosophila SFM containing 5 ml/L Antibiotic-Antimycotic (100×) (Gibco, Carlsbad, Calif.). D.Mel-2 cells were seeded into a 12-well plate at a cell density of 5×10^5 cells/well and incubated overnight at 27° C. In a 12×75 mm polystyrene tube 6 μg pIB/V5-HisA/ric3, 82 μl sterile H2O and 12 μl CellFectin (Invitrogen, Carlsbad, Calif.) were added. The sample was mixed gently and incubated at room temperature for 15 minutes. While the transfection mix was incubating, media from one well of cells was removed and replaced with 1 ml fresh media without antibiotics. After 15 minutes, the media was removed from cells. To this transfection mix, 0.5 ml media (no antibiotics) was added. This solution was then added to the cells. The mixture was incubated for 48 hrs at 27° C. After 48 hrs, the cells were scraped from the plate using a cell scraper and split into 4 wells of a 6-well plate each containing 2 ml Drosophila SFM with antibiotics. Cells were allowed to attach for 1 hr at 27° C.; the media was removed and replaced with 2 ml fresh media containing 25 μg/ml Blasticidin S (Invitrogen, Carlsbad, Calif.). Cells were incubated at 27° C. for 5 days. After 5 days, the cells were scraped loose from the wells and combined into one tube. Cells were spun down at 600 rpm in a tabletop centrifuge; the media was removed and the cells were resuspended into a 50 ml shake culture in fresh Drosophila SFM containing 25 μg/ml Blasticidin S. The cells were incubated at 27° C./140 rpm. Cells were subcultured twice weekly back to cell density of 3×10^5 cells/ml. After 4 weeks the selection was cut back to 10 μg/ml Blasticidin S. After 3 months of growth under selection, a 12 well plate was seeded at 5×10^5 cells/well and cells were incubated over night at 27° C. The following reagents were added to each of three 12×75 mm polystyrene tubes: 2 μg pMT/V5-HisA/30D, 0.15 μg pCoHygro (Invitrogen, Carlsbad, Calif.) (a […] ratio of expression plasmid:selection plasmid), 89 μl sterile H2O and 12 μl CellFectin. The samples were mixed gently and incubated at room temp for 15 minutes and then transfected as described above. After 24 hrs, the media containing transfection mix was removed and replaced with 1 ml fresh media containing antibiotics. The incubation was continued at 27° C. for another 24 hrs. Cells were scraped loose from the 12-well plate (3 wells) and split into 2, 6-well plates. Cells were allowed to attach for 6 hours at which point, the media was replaced with 2 ml/well fresh media containing 200, 150, 100 or 50 μg/ml hygromycin B. The incubation was continued at 27° C.; every 4-5 days, the media was replaced with media containing hygromycin every 4-5 days. After 2 weeks of selection in the plates, the cells from the 200 μg/ml selection, were scraped loose and then gently pelleted and resuspended in 25 ml fresh media containing 200 μg/ml hygromycin B and then placed into a 125 ml shake flask.

34E/ric-3 = format: cell-based, Drosophila melanogaster
Method: (§3) Xenopus laevis (Xenopus 1, Ann Arbor, Mich.; Nasco, Fort Atkinson, Wis.) were anesthetized by bathing in a solution of 2 g/l tricaine methane sulfonate, and oocytes were surgically removed from the frog and placed in a culture solution that consisted of 96 mM NaCl, 2 mM KCl, 1.8 mM CaCl2, 1 mM MgCl2, 5 mM HEPES, 2.5 mM Na-pyruvate, 100 units/ml penicillin, and 0.1 mg/ml streptomycin, pH 7.6. Oocytes were dispersed in a nominally zero Ca^2+ protease treatment solution to defolliculate the oocytes. The protease treatment solution consisted of either 88 mM NaCl, 2.5 mM KCl, 1 mM MgCl2, 5 mM HEPES, 2.5 mM Na-pyruvate, 100 units/ml penicillin, and 0.1 mg/ml streptomycin, pH 7.6 plus 1.5 mg/ml collagenase IA (Sigma Chemical Co., St. Louis, Mo.). After isolation, the oocytes were thoroughly rinsed and returned to the above Ca^2+ containing culture solution and stored at 18° C.
(§4) Synthesis of cRNA was performed as follows: Plasmid DNA was linearized with one of the following restriction enzymes; Not I, Xho I or Nhe I. The linearized DNA was subsequently used as template for cRNA synthesis using T7 mMessage mMachine kit (Ambion, Austin, Tex.) following the manufacturer's instructions.
(§5) Micropipettes for injection of cRNA into Xenopus oocytes were pulled on a DMZ-Universal Puller (Zeitz-Instruments, München, Germany). The cRNA to be injected was drawn up into the micropipette with negative pressure. Approximately 10-50 ng of cRNA was injected into the oocytes by applying positive pressure using a Nanoject II oocyte injector (Drummond Scientific Co., Broomall, Pa.). Nucleic acid was introduced into the oocytes as follows: (1) nicotinic acetylcholine receptor alpha-6 subunit subunit (30D) (2) nicotinic alpha-7 receptor subunit (34E); (3) nicotinic acetylcholine receptor alpha-6 subunit and C. elegans ric-3 (30D and ric-3); (4) nicotinic alpha-7 receptor subunit and C. elegans ric-3 (34E and ric-3); (5) nicotinic acetylcholine receptor alpha-6 subunit and nicotinic alpha-7 receptor subunit (30D and 34E); and, (6) nicotinic acetylcholine receptor alpha-6 subunit, nicotinic alpha-7 receptor subunit and C. elegans ric-3 (30D, 34E and ric-3).
(§6) The control external solution for voltage clamp recordings consisted of 88 mM NaCl, 1 mM KCl, 0.41 mM CaCl2, 2.4 mM NaHCO3, 0.3 mM Ca(NO3)2, 0.82 mM MgSO4.7H2O, and 15 mM HEPES, pH 7.6. The recording chamber was continuously perfused with a gravity-fed perfusion system. Nicotine (1 mM) was added to the external solution and then added to the perfusate for 30 seconds. Then, nicotine was washed from the external solution a minimum of 10 minutes. Thereafter, spinosyn A was dissolved in dimethylsulfoxide (DMSO) and then dissolved in the external solution at a final concentration of 10 μM and then added to the perfusate for 60 seconds. Then, the spinosyn A was washed from the external solution. The final concentration of DMSO never exceeded 0.1% (v/v).

[4] = test system: nicotinic acetylcholine receptor alpha-5 subunit (34E); format: cell-based, Drosophila melanogaster; further: key: '−' indicates a negligible current was induced; '+' indicates a small amplitude current; '++' indicates a moderate amplitude current; '++++' indicates a large amplitude current
Method: as §3, §4, §5, §6

[5] = test system: nicotinic acetylcholine receptor alpha-6 subunit (30D); format: cell-based, Drosophila melanogaster; further: key: '−' indicates a negligible current was induced; '+' indicates a small amplitude current; '++' indicates a moderate amplitude current; '++++' indicates a large amplitude current
Method: as §3, §4, §5, §6

Dα6-nicotinic receptor = format: binding, Drosophila melanogaster
Method: Xenopus oocytes were injected as previously described for the electrophysiological assay and were used intact for binding assays.
Two main radioligands were used in binding assays: the conventional α7 radioligand, [^3]methyllycaconitine (MLA) and [^3]dihydrospinosyn A (DHSA). For both radioligands, the Binding Buffer used consisted of 10 mM sodium phosphate (7.2-7.4). All experiments using D.Mel-2 cell suspensions were carried out with 50 μl of cell suspension. For Xenopus oocyte binding assays, oocytes were pooled (2-5 oocytes) and transferred to 1 ml Binding Buffer. This was followed by gently aspirating the Binding Buffer and replacing with fresh Binding Buffer twice, to wash out any residual oocyte bathing media. The final volume of buffer added to each pool of oocytes was 50-100 μl. […] Subsequent dilutions were made in Binding Buffer. The final concentration of solvent was maintained at less than 0.1% in each well. […] For the cell extracts, bound radioactivity and free radioactivity fractions were separated by gentle vacuum through GF/C glass fiber filter mats using a TomTec (CT) 96-well cell harvester. […] Filter mats were dried in an oven at 60° C. and the radioactivity from samples was counted for three minutes with a Wallac MicroBeta Counter (Wallac, Conn.) using Meltilex solid-scintillant (PerkinElmer, Finland). […]

30D/ric-3 = format: cell-based, Drosophila melanogaster; conditions: spinosyn A 10 μM for 60 seconds, oocytes clamped to −60 mV, peak current
Method: as §3, §4, §5, §6

34E/30D/ric-3 = format: cell-based, Drosophila melanogaster; parameters: key to the marks not given beside the values; conditions: spinosyn A 10 μM for 60 seconds, oocytes clamped to −60 mV, peak current
Method: as §3, §4
(§7) Micropipettes for injection of cRNA into Xenopus oocytes were pulled on a DMZ-Universal Puller (Zeitz-Instruments, München, Germany). […]

34E/30D = format: cell-based, Drosophila melanogaster; parameters: key to the marks not given beside the values; conditions: spinosyn A 10 μM for 60 seconds, oocytes clamped to −60 mV, peak current
Method: as §3, §4, §7

[6] = D.Mel-2 cells expressing D α6 and C. elegans ric3
Wherever Nicotine Response is given: key: '−' indicates a negligible current was induced; '+' indicates a small amplitude current; '++' indicates a moderate amplitude current; '++++' indicates a large amplitude current.
Wherever Spinosyn A Response is given: key: '−' indicates a negligible current was induced; '+' indicates a small amplitude current; '++' indicates a moderate amplitude current; '++++' indicates a large amplitude current.

## 21-butenyl spinosyn
[1]
  mortality: all wild-type flies exhibited mortality
[2]
  mortality: no significant mortality
  resistance of spinosyn A resistant flies compared to wild-type flies (based on LD50): > 100 fold

## CCN1C[C@]2(COC(=O)c3ccccc3N3C(=O)C[C@H](C)C3=O)CC[C@H](OC)[C@@]34[C@@H]5C[C@H]6[C@H](OC)[C@@H]5[C@](O)(C[C@@H]6OC)[C@@](O)([C@@H](OC)[C@H]23)[C@@H]14 [MLA, methyllycaconitine]
[3]; [6]
  displacement of [3H]DHSA binding: can be demonstrated at higher concentrations
[3]; [3H]DHSA binding assay, D.Mel-2 cells
  overall affinity for this receptor complex: relatively poor

## CN1CCCC1c1cccnc1 (centres unmarked) [Nicotine, nicotine]
34E/ric-3
  Nicotine Response: +
[4]
  Nicotine Response: +
[5]
  Nicotine Response: −
Dα6-nicotinic receptor
  % Displacement of Total Binding: 72%
[3]
  displacement of [3H]DHSA binding: displacement

## CC[C@H]1CCC[C@H](O[C@H]2CC[C@H](N(C)C)[C@@H](C)O2)[C@@H](C)C(=O)C2=C[C@@H]3[C@@H](C=C[C@@H]4C[C@@H](O[C@@H]5O[C@@H](C)[C@H](OC)[C@@H](OC)[C@H]5OC)C[C@@H]34)[C@@H]2CC(=O)O1 [Spinosyn A, spinosyn A]
30D/ric-3
  Spinosyn A Response: +
34E/ric-3; 34E/ric-3, spinosyn A 10 μM for 60 seconds, oocytes clamped to −60 mV, peak current
  Spinosyn A Response: −
[4]; 34E, spinosyn A 10 μM for 60 seconds, oocytes clamped to −60 mV, peak current
  Spinosyn A Response: −
[5]; 30D, spinosyn A 10 μM for 60 seconds, oocytes clamped to −60 mV, peak current
  Spinosyn A Response: −
34E/30D/ric-3
  Spinosyn A Response: ++++
34E/30D
  Spinosyn A Response: ++
Dα6-nicotinic receptor; 10 μM, [3H]MLA, intact Xenopus oocytes 3 days post-injection with Dmα6
  % Displacement of Total Binding: 72%
[3]; [6]
  displacement of [3H]DHSA binding: significant displacement
[1]
  mortality: all wild-type flies exhibited mortality
[2]
  mortality: no significant mortality
  resistance of spinosyn A resistant flies compared to wild-type flies (based on LD50): at least 100 fold

## C[N+](C)(C)CCOC(N)=O.[Cl-] [carbamylcholine]
[3]; [6]
  displacement of [3H]DHSA binding: did not significantly displace

## CC[C@H]1CCC[C@H](O[C@H]2CC[C@H](N(C)C)[C@@H](C)O2)[C@@H](C)C(=O)C2=C[C@H]3[C@@H]4C[C@H](O[C@@H]5O[C@@H](C)[C@H](OC)[C@@H](OC)[C@H]5OC)C[C@H]4CC[C@H]3[C@@H]2CC(=O)O1 [dihydrospinosyn A]
[3]; [6]
  displacement of [3H]DHSA binding: significant displacement

## Clc1ccc(C2CC3CCC2N3)cn1 (centres unmarked) [epibatidine]
[3]; [6]
  displacement of [3H]DHSA binding: did not significantly displace

## NS(=O)(=O)c1cc(C(=O)O)c(NCc2ccco2)cc1Cl [furosemide]
[3]
  displacement of [3H]DHSA binding: No significant displacement

## O=[N+]([O-])NC1=NCCN1Cc1ccc(Cl)nc1 [imidacloprid]
[3]; [6]
  displacement of [3H]DHSA binding: did not significantly displace

## CN1[C@@H](CC(=O)c2ccccc2)CCC[C@H]1C[C@H](O)c1ccccc1 [lobeline]
[3]; [6]
  displacement of [3H]DHSA binding: did not significantly displace

## CC[C@H]1CCC[C@H](O)[C@@H](C)C(=O)C2=C[C@@H]3[C@@H](C=C[C@@H]4C[C@@H](O[C@@H]5O[C@@H](C)[C@H](OC)[C@@H](OC)[C@H]5OC)C[C@@H]34)[C@@H]2CC(=O)O1 [pseudoagylcone of spinosyn A]
[3]; [6]
  displacement of [3H]DHSA binding: Nor was there significant displacement

## C[C@H](O)[C@H](O)[C@@H](O)[C@@H](O)C=O [rhamnose]
[3]; [6]
  displacement of [3H]DHSA binding: No significant displacement

## CN1COCN(Cc2cnc(Cl)s2)/C1=N\[N+](=O)[O-] [thiamethoxam]
[3]; [6]
  displacement of [3H]DHSA binding: did not significantly displace

## alpha-bungarotoxin
[3]
  displacement of [3H]DHSA binding: can be demonstrated at higher concentrations
  overall affinity for this receptor complex: relatively poor
